Reference: ChEMBL document CHEMBL4680060, “Polybasic peptide-levofloxacin conjugates potentiate fluoroquinolones and other classes of antibiotics against multidrug-resistant Gram-negative bacteria” (Medchemcomm, 2019)
Values after ≈ are worked out from the molar mass of the structure shown. Active and inactive are the calls of the source. The calls are words filed in the database; no cut-off is given here.

How the values were obtained:
Staphylococcus aureus [1] = assay: Antibacterial activity against Staphylococcus aureus ATCC 29213 assessed as inhibition of visible growth incubated for 18 hrs by CLSI protocol based microbroth dilution method; format: functional
Staphylococcus aureus [2] = assay: Antibacterial activity against methicillin-resistant Staphylococcus aureus ATCC 33592 assessed as inhibition of visible growth incubated for 18 hrs by CLSI protocol based microbroth dilution method; format: functional
[3] = test system: Staphylococcus epidermidis; assay: Antibacterial activity against methicillin-susceptible Staphylococcus epidermidis clinical isolate CANWARD-2008 81388 assessed as inhibition of visible growth incubated for 18 hrs by CLSI protocol based microbroth dilution method; format: functional
Streptococcus pneumoniae = assay: Antibacterial activity against Streptococcus pneumoniae ATCC 49619 assessed as inhibition of visible growth incubated for 18 hrs by CLSI protocol based microbroth dilution method; format: functional
Enterococcus faecalis = assay: Antibacterial activity against Enterococcus faecalis ATCC 29212 assessed as inhibition of visible growth incubated for 18 hrs by CLSI protocol based microbroth dilution method; format: functional
Escherichia coli [4] = assay: Antibacterial activity against Escherichia coli ATCC 25922 assessed as inhibition of visible growth incubated for 18 hrs by CLSI protocol based microbroth dilution method; format: functional
Pseudomonas aeruginosa [5] = assay: Potentiation of ciprofloxacin-induced antibacterial activity against wild type Pseudomonas aeruginosa PAO1 assessed as ciprofloxacin MIC measured after 18 hrs by CLSI protocol based microbroth dilution method (reference value: 0.125 ug/ml); format: functional
Pseudomonas aeruginosa [6] = assay: Potentiation of levofloxacin-induced antibacterial activity against wild type Pseudomonas aeruginosa PAO1 assessed as levofloxacin MIC measured after 18 hrs by CLSI protocol based microbroth dilution method (reference value: 0.5 ug/ml); format: functional
Pseudomonas aeruginosa [7] = assay: Synergistic antibacterial activity against wild type Pseudomonas aeruginosa PAO1 assessed as fractional inhibitory concentration index in presence of moxifloxacin by Checkerboard assay; format: functional
Pseudomonas aeruginosa [8] = assay: Additive antibacterial activity against MexAB-OprM efflux pump deficient Pseudomonas aeruginosa PAO200 in presence of ciprofloxacin by Checkerboard assay; format: functional, organism-based
Pseudomonas aeruginosa [9] = assay: Additive antibacterial activity against MexAB-OprM efflux pump deficient Pseudomonas aeruginosa PAO200 in presence of levofloxacin by Checkerboard assay; format: functional, organism-based
Pseudomonas aeruginosa [10] = assay: Additive antibacterial activity against MexAB-OprM efflux pump deficient Pseudomonas aeruginosa PAO200 in presence of moxifloxacin by Checkerboard assay; format: functional, organism-based
Pseudomonas aeruginosa [11] = assay: Additive antibacterial activity against MexAB-OprM, MexCD-OprJ, MexEF-OprN, MexJK and MexXY efflux pumps deficient Pseudomonas aeruginosa PAO750 in presence of ciprofloxacin by Checkerboard assay; format: functional, organism-based
Pseudomonas aeruginosa [12] = assay: Synergistic antibacterial activity against multidrug resistant Pseudomonas aeruginosa PA260 in presence of levofloxacin by Checkerboard assay; format: functional, organism-based
Pseudomonas aeruginosa [13] = assay: Synergistic antibacterial activity against multidrug resistant Pseudomonas aeruginosa PA262 in presence of ciprofloxacin by Checkerboard assay; format: functional, organism-based
Pseudomonas aeruginosa [14] = assay: Synergistic antibacterial activity against multidrug resistant Pseudomonas aeruginosa PA264 in presence of ciprofloxacin by Checkerboard assay; format: functional, organism-based
Pseudomonas aeruginosa [15] = assay: Synergistic antibacterial activity against multidrug resistant Pseudomonas aeruginosa PA264 in presence of moxifloxacin by Checkerboard assay; format: functional, organism-based
Pseudomonas aeruginosa [16] = assay: Synergistic antibacterial activity against multidrug resistant Pseudomonas aeruginosa PA101885 in presence of ciprofloxacin by Checkerboard assay; format: functional, organism-based
Pseudomonas aeruginosa [17] = assay: Synergistic antibacterial activity against multidrug resistant Pseudomonas aeruginosa PA101885 in presence of levofloxacin by Checkerboard assay; format: functional, organism-based
Pseudomonas aeruginosa [18] = assay: Synergistic antibacterial activity against multidrug resistant Pseudomonas aeruginosa PA101885 in presence of moxifloxacin by Checkerboard assay; format: functional, organism-based
Escherichia coli [19] = assay: Additive antibacterial activity against Escherichia coli ATCC 25922 in presence of ciprofloxacin by Checkerboard assay; format: functional, organism-based
Escherichia coli [20] = assay: Additive antibacterial activity against Escherichia coli 107115 in presence of ciprofloxacin by Checkerboard assay; format: functional, organism-based
Escherichia coli [21] = assay: Additive antibacterial activity against Escherichia coli 94393 in presence of ciprofloxacin by Checkerboard assay; format: functional, organism-based
Escherichia coli [22] = assay: Synergistic antibacterial activity against Escherichia coli ATCC 25922 in presence of levofloxacin by Checkerboard assay; format: functional, organism-based
Escherichia coli [23] = assay: Synergistic antibacterial activity against Escherichia coli 94393 in presence of levofloxacin by Checkerboard assay; format: functional, organism-based
Escherichia coli [24] = assay: Synergistic antibacterial activity against Escherichia coli 94474 in presence of levofloxacin by Checkerboard assay; format: functional, organism-based
Escherichia coli [25] = assay: Synergistic antibacterial activity against Escherichia coli 94474 in presence of moxifloxacin by Checkerboard assay; format: functional, organism-based
Klebsiella pneumoniae = assay: Synergistic antibacterial activity against Klebsiella pneumoniae 116381 in presence of moxifloxacin by Checkerboard assay; format: functional, organism-based
Acinetobacter baumannii [26] = assay: Synergistic antibacterial activity against Acinetobacter baumannii ATCC 17978 in presence of levofloxacin by Checkerboard assay; format: functional, organism-based
Acinetobacter baumannii [27] = assay: Synergistic antibacterial activity against Acinetobacter baumannii ATCC 17978 in presence of moxifloxacin by Checkerboard assay; format: functional, organism-based
Acinetobacter baumannii [28] = assay: Synergistic antibacterial activity against multidrug resistant Acinetobacter baumannii AB027 assessed as fractional inhibitory concentration index in presence of levofloxacin by Checkerboard assay; format: functional
[29] = Hemolytic activity in pig erythrocyte at 512 ug/ml incubated for 1 hr by microplate reader assay relative to control; format: ADME, cell-based, Sus scrofa; details: pig erythrocytes, at 512 µg/mL, read-out: Activity
Pseudomonas aeruginosa [30] = assay: Potentiation of linezolid-induced antibacterial activity against wild type Pseudomonas aeruginosa PAO1 measured after 18 hrs by CLSI protocol based microbroth dilution method; format: functional, organism-based
Pseudomonas aeruginosa [31] = assay: Potentiation of pleuromutilin-induced antibacterial activity against wild type Pseudomonas aeruginosa PAO1 measured after 18 hrs by CLSI protocol based microbroth dilution method; format: functional, organism-based
Pseudomonas aeruginosa [32] = assay: Potentiation of ceftazidime-induced antibacterial activity against wild type Pseudomonas aeruginosa PAO1 measured after 18 hrs by CLSI protocol based microbroth dilution method; format: functional, organism-based
Pseudomonas aeruginosa [33] = assay: Potentiation of minocycline-induced antibacterial activity against wild type Pseudomonas aeruginosa PAO1 measured after 18 hrs by CLSI protocol based microbroth dilution method; format: functional, organism-based
Pseudomonas aeruginosa [34] = assay: Potentiation of rifampicin-induced antibacterial activity against wild type Pseudomonas aeruginosa PAO1 measured after 18 hrs by CLSI protocol based microbroth dilution method; format: functional, organism-based
Pseudomonas aeruginosa [35] = assay: Potentiation of vancomycin-induced antibacterial activity against wild type Pseudomonas aeruginosa PAO1 measured after 18 hrs by CLSI protocol based microbroth dilution method; format: functional, organism-based
Pseudomonas aeruginosa [36] = assay: Potentiation of novobiocin-induced antibacterial activity against wild type Pseudomonas aeruginosa PAO1 measured after 18 hrs by CLSI protocol based microbroth dilution method; format: functional, organism-based

C[C@H]1COc2c(N3CCN(C)CC3)c(F)cc3c(=O)c(C(=O)NCCCCCCCCCCCC(=O)N[C@@H](CCN)C(=O)N[C@@H](CCN)C(N)=O)cn1c23
MIC (Staphylococcus aureus [1]): 128 µg/mL (≈ 169 µM) | MIC (Staphylococcus aureus [2]): > 128 µg/mL | MIC [3]: 64 µg/mL (≈ 84.4 µM) | MIC (Streptococcus pneumoniae): > 128 µg/mL | MIC (Enterococcus faecalis): > 128 µg/mL | MIC (Escherichia coli [4]): 64 µg/mL (≈ 84.4 µM) | MIC (Pseudomonas aeruginosa [5]): 0.031 µg/mL | MIC (Pseudomonas aeruginosa [6]): 0.063 µg/mL | fractional inhibitory concentration index (FICI) (Pseudomonas aeruginosa [7]): 0.5 | Activity (Pseudomonas aeruginosa [8]): Active | Activity (Pseudomonas aeruginosa [9]): Active | Activity (Pseudomonas aeruginosa [10]): Active | Activity (Pseudomonas aeruginosa [11]): Active | Activity (Pseudomonas aeruginosa [12]): Active | Activity (Pseudomonas aeruginosa [13]): Active | Activity (Pseudomonas aeruginosa [14]): Active | Activity (Pseudomonas aeruginosa [15]): Active | Activity (Pseudomonas aeruginosa [16]): Active | Activity (Pseudomonas aeruginosa [17]): Active | Activity (Pseudomonas aeruginosa [18]): Active | Activity (Escherichia coli [19]): Active | Activity (Escherichia coli [20]): Active | Activity (Escherichia coli [21]): Active | Activity (Escherichia coli [22]): Active | Activity (Escherichia coli [23]): Active | Activity (Escherichia coli [24]): Active | Activity (Escherichia coli [25]): Active | Activity (Klebsiella pneumoniae): Active | Activity (Acinetobacter baumannii [26]): inactive | Activity (Acinetobacter baumannii [27]): inactive | fractional inhibitory concentration index (FICI) (Acinetobacter baumannii [28]): 0.37 | hemolysis at 1 h, 512 ug/ml [29]: < 1% | Activity (Pseudomonas aeruginosa [30]): Active | Activity (Pseudomonas aeruginosa [31]): Active | Activity (Pseudomonas aeruginosa [32]): Active | Activity (Pseudomonas aeruginosa [33]): Active | Activity (Pseudomonas aeruginosa [34]): Active | Activity (Pseudomonas aeruginosa [35]): Active | Activity (Pseudomonas aeruginosa [36]): Active
